Data: patent publication US12208111B2 (LUNELLA BIOTECH, INC., priority 2018, dated 2025)
Where two headings read alike, the source gives them in different places.

Experiments:
Type in all cases: cell-based, human
MRC-5 cells = experiment: Beta-galactosidase staining; conditions: 8 days of BrdU treatment
Experimental: Furthermore, the inventors validated the use of BrdU-induced DNA-damage as being sufficient to induce cellular senescence. […] The results evidence that the cells treated with BrdU underwent cell cycle arrest, as evidenced by both a ˜70% reduction in the number of cells in S-phase, and the induction of beta-galactosidase activity.
Beta-Gal staining: Beta-Galactosidase staining of BrdU-treated MRC-5 cells was performed by Senescence B-Galactosidase Staining Kit (#9860, Cell Signalling Technology Inc.) and was done according to manufacturer's protocol.

MRC-5 fibroblasts = experiment: DNA synthesis / cell cycle, Muse cell cycle kit; conditions: two-day treatment with BrdU
Experimental: The […] […] Autophagy and Cell cycle analysis: Autophagy (using MuseTMM Autophagy LC3-antibody based Kit, Merck Millipore) and cell cycle (Muse® Cell Cycle Kit, Merck Millipore) experiments were performed according to manufacturer's instructions.

senescent MRC-5 cells [1] = experiment: SRB assay, viability of BrdU-induced senescent MRC-5 fibroblasts
Experimental: (§1) Bromodeoxyuridine (5-bromo-2′-deoxyuridine), also known as BrdU, may be used to induce senescence. BrdU is an analog of the nucleoside thymidine commonly used to identify proliferating cells. BrdU induces controlled DNA damage, and drives cells towards senescence with high efficiency. The BrdU assay of the present approach calls for subjecting normal fibroblasts to prolonged culture (8-days) in the presence of BrdU at 100 μM to induce controlled DNA-damage and senescence. […] Then, isogenically-matched cultures of normal and senescent fibroblasts may be used for drug screening to identify drugs having senolytic activity. Senolytic activity may be detected using the sulforhodamine B assay, also known in the art as the SRB assay. This assay measures the amount of protein remaining attached to the tissue-culture dishes, and is a surrogate marker for cell viability. This approach may be used to rapidly screen compounds, including clinically-approved drugs, such as, for example, antibiotics. […] It should be appreciated that the present approach may be used to screen other compounds.
After that, the SRB assay was performed to determine the effects of the drug on cell viability. […] The scale bar in the upper-right of FIGS. 3B and 3C represents 20 μm.
After the 5-day exposure, the SRB assay was performed to determine the effects of the drug on cell viability. […] The * indicates p<0.05 in FIG. 4.
MRC-5 or BJ cells were plated into 24-well plates. Next day, half of the plate was treated with 100 μM of BrdU while control wells were treated with vehicle only (DMSO) and incubated for 8 days at 37° C. in a 5% CO2 humidified atmosphere. […] BrdU is washed out before the drug treatments.
Sulphorhodamine B assay: After the incubation of the plates cell viability was measured by Sulphorhodamine B assay (SRB). The assay is based on the measurement of cellular protein contents. Cells were fixed with 10% Trichloroacetic acid (TCA) for 1 hour at 4 °C, and were dried overnight at room temperature. Then, plates were incubated with SRB for 30 min, washed twice with 1% acetic acid and air dried for at least 1 h. Finally, the protein-bound dye was dissolved in a 10 mM Tris, pH 8.8, solution and read using a plate reader at 540-nm.

[2] = system: normal control MRC-5 cells; experiment: xCELLigence real-time cell analysis, normal MRC-5 fibroblasts; conditions: 90 μM
Excerpt: (§2) In further application of the present approach, the selectivity of azithromycin towards senescent cells was validated using the xCELLigence system. Because senescent cells undergo the so-called senescence-associated secretory phenotype (SASP), which involves dramatic increases in the synthesis and secretion of proteins, the inventors assessed whether the protein measurement assay system under-estimates the senolytic activity of tested compounds. […] The normalized cell index for the control was noticeably higher immediately after treatment, and coincided with the BrdU-only curve until about hour 235. […] For the data shown in FIGS. 9A and 9B, the **** indicates p<0.001. The real-time xCELLigence assay system thus compliments the more static SRB assay, and offers a more direct visualization of the potential senolytic effects of compounds during drug screening. The xCELLigence assays were also used to confirm senolytic activity for roxithromycin and telithromycin. […] MRC-5 fibroblasts were used for these assays. […] Note that in FIG. 10A. * indicates p<0.01. From top to bottom at time 249 hours, the lines represent the control, BrdU-only, Control with roxithromycin (90 μM), and BrdU with roxithromycin. […] The same approach was used to confirm senolytic activity for telithromycin. […] This approach allows the quantification of the onset and kinetics of the cellular response. […]

senescent MRC-5 cells [3] = experiment: xCELLigence real-time cell analysis, senescent (BrdU-treated) MRC-5 fibroblasts; conditions: 90 μM, 5 days after BrdU wash out
Excerpt: as §2

[4] = system: normal MRC-5 lung fibroblasts; experiment: SRB assay, viability of normal MRC-5 fibroblasts; conditions: 100 μM, 5 days
Experimental: as §1, with “compounds. […]” for “compounds.”
Sulphorhodamine B assay: After the incubation of the plates cell viability was measured by Sulphorhodamine B assay (SRB). […] Finally, the protein-bound dye was dissolved in a 10 mM Tris, pH 8.8, solution and read using a plate reader at 540-nm.

Row | SMILES | beta-galactosidase staining (biomarker of cellular senescence) (MRC-5 cells) | reduction of DNA synthesis (MRC-5 fibroblasts) [%] | senolytic activity in the screening assay (senescent MRC-5 cells [1]) | Viability of senescent MRC-5 cells (% versus control) (senescent MRC-5 cells [1]; 50 μM) [%] | Viability of senescent MRC-5 cells (% versus control) (senescent MRC-5 cells [1]; 100 μM) [%] | effect on viability of normal MRC-5 fibroblasts (final cell index) [2] | senescent MRC-5 cells targeted (final cell index) (senescent MRC-5 cells [3]) [%] | effect on viability of normal MRC-5 fibroblasts [4] | effect on senescent MRC-5 cell viability (senescent MRC-5 cells [1]; 50 μM, 5 days) | senolytic activity in the screening assay (senescent MRC-5 cells [1]; 100 μM)
1 | O=c1[nH]c(=O)n([C@H]2C[C@H](O)[C@@H](CO)O2)cc1Br [BrdU, 5-bromo-2′-deoxyuridine] | positively stained | ~70 | – | – | – | – | – | – | – | –
2 | CC[C@H]1OC(=O)[C@H](C)[C@@H](O[C@H]2C[C@@](C)(OC)[C@@H](O)[C@H](C)O2)[C@H](C)[C@@H](O[C@@H]2O[C@H](C)C[C@H](N(C)C)[C@H]2O)[C@](C)(O)C[C@@H](C)C(=O)[C@H](C)[C@@H](O)[C@]1(C)O [Erythromycin, erythromycin] | – | – | did not show any senolytic activity | 100 | 100 | – | – | – | – | –
3 | CC[C@H]1OC(=O)[C@H](C)[C@@H](O[C@H]2C[C@@](C)(OC)[C@@H](O)[C@H](C)O2)[C@H](C)[C@@H](O[C@@H]2O[C@H](C)C[C@H](N(C)C)[C@H]2O)[C@](C)(O)C[C@@H](C)/C(=N\OCOCCOC)[C@H](C)[C@@H](O)[C@]1(C)O [Roxithromycin, roxithromycin] | – | – | – | 100 | 30.99 | minimal effect | 82 | small effect | no effect | have senolytic activity
4 | CC[C@H]1OC(=O)[C@H](C)C(=O)[C@H](C)[C@@H](O[C@@H]2O[C@H](C)C[C@H](N(C)C)[C@H]2O)[C@](C)(OC)C[C@@H](C)C(=O)[C@H](C)[C@H]2N(CCCCn3cnc(-c4cccnc4)c3)C(=O)O[C@]12C [Telithromycin, telithromycin] | – | – | showed beneficial senolytic activity | – | – | negligible impact | 100 | – | – | –
